This passage reports IC50 results from ChEMBL document CHEMBL5726504, “Substituted cyclopentanes, tetrahydrofuranes and pyrrolidines as orexin receptor antagonists” (2017).

The assay deals with T1, Orexin/Hypocretin receptor type 1 (Homo sapiens, UniProt O43613).
T1 sequence (O43613 whole entry): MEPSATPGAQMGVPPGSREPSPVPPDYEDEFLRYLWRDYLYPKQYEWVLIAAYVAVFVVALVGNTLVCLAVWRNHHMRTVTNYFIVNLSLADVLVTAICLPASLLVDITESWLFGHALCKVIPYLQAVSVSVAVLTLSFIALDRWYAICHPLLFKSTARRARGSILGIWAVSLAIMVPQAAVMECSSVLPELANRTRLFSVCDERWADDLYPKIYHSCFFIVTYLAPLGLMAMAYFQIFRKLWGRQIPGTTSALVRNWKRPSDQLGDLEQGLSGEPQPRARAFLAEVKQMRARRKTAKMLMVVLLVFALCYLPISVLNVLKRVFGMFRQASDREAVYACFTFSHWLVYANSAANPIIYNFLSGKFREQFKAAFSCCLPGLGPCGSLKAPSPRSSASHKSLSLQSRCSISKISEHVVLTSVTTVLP
The assay is described as follows: FLIPR Assay: Orexin antagonist activity was determined by measuring changes in intracellular calcium levels using a Ca2+ sensitive fluorescent dye. The changes in fluorescent signal were monitored by Fluorescent Imaging Plate Reader (FLIPR) technology available from Molecular Devices, LLC, U.S.A. Orexin mediated increases in intracellular Ca2+ concentration were readily detected upon activation with orexin-A. Twenty-four hours prior to the assay, RBL-2H3 cells stably expressing either human orexin receptor 1 or human orexin receptor 2 were seeded in cell culture medium in black, clear-bottom 384-well plates (commercially available from Corning Inc., U.S.A.) and grown overnight at 37° C., 5% CO2. On the day of the assay, cell culture media was removed and cells were loaded with Calcium 5 Dye (commercially sold by Molecular Devices, LLC, U.S.A.) for 1 hour at 37° C., 5% CO2. Test compounds (at 10 point half log concentration response curves from 10 uM) were added to cells for 15 minutes prior to the addition of orexin-A to all wells, to achieve a final concentration that produces approximately an 80% maximal response. In kind it is cell-based. For orientation: A change in cytosolic calcium serves as a functional read-out for many receptors and channels.

Consider `COc1ccc(Br)nc1C(=O)N[C@H]1CCC[C@@H]1Nc1nc2ccc(F)cc2s1`, for which the IC50 stood at 128 nM.

Usually IC50 stands for the concentration that gives 50% inhibition.
